# Reference: patent US9249468B2, “Methods and materials related to ovarian cancer” (The Ohio State University, priority 2011, dated 2016)
# Where “and” joins values, the source holds several entries; their conditions need not be identical. Equal entries are not always repeated. Entries after “also recorded” stand apart in the source; their conditions may differ.
# What was measured:
# VEGFR2 [1] = test: Luciferase and western blot after miR transfection in HUVEC cells; assay type: cell-based; details: luciferase and western blot analyses
# Procedure: (§1) For overexpression of miR-296 and miR-484, 100 nM of pre-miR-296, pre-miR-484 and pre-negative control-2 (Ambion) was transfected into HEK293 and HUVE cells using Lipofectamine 2000 (Invitrogen). After 24 hr, cells were harvested and lysed in RIPA buffer containing protease inhibitor cocktail (Roche Diagnostic). Protein concentrations of total cell lysates were measured using a Bradford Protein Assay Dye Reagent Concentrate (Bio-Rad), and 35 μg of cell lysates was resolved on SDS-PAGE gels (Bio-Rad) and transferred to nitrocellulose followed by visualization with ECL detection reagents (Denville Scientific). The following primary antibodies were used: mouse monoclonal anti-Hgs (1:1000, Enzo Life Science), rabbit polyclonal anti-VEGF Receptor 2 (1:1000, Cell Signaling Technology), mouse monoclonal anti-VEGF-B (1:200, Santa Cruz Biotechnology), mouse monoclonal anti-a-Tubulin (1:2000, Sigma).
# HUVEC cells [2] = test: Co-culture of HUVEC with miR over-expressing ovarian cancer cells: miR transfer; assay type: cell-based
# Procedure: (§2) Total RNA was isolated with Trizol (Invitrogen) from cells and with High Pure miRNA Isolation Kit (Roche) in accordance with manufacturer's instructions for liquid samples. Mature miRs were assessed by the single-tube TaqMan MicroRNA Assay. miR expression was normalized in cells to RNU44 and RNU48. All retrotranscriptase (RT) reactions, including no-template controls and RT minus controls, were run in a GeneAmp PCR 9600 Thermocycler (Applied Biosystems).
# (§3) Each sample was tested in triplicate unless otherwise specified. MicroRNAs from medium samples were isolated. After DNase treatment (Ambion), RNA concentrations were determined with a NanoDrop (Thermo Scientific). In serum samples were normalized to U6snRNA (Applied Biosystems), as indicated. Since U6 is inconsistent, the expression levels of target miRNAs were directly normalized to total RNA (the inventors tested before the absence of miR-296-5p and miR-484 in not conditioned medium).
# MDAH-2774 cells [3] = test: Intratumoral delivery of lentivirus expressing miR-484 with CBDCA+Tax treatment; assay type: in vivo, nude mice; details: CBDCA+Tax biweekly for 3 weeks, tumor growth after 21 days
# Procedure: (§4) Two approaches were used to evaluate the effects of miR-484 expression on in vivo chemosensitivity: 1) MDAH-2774 cells scrambled-miR (right flank) or miR-484 (left flank) and SKOV-3 scrambled-miR (right flank) or miR-484 (left flank) were injected and treated with intraperitoneal administration of Carboplatin (15 mg/kg) plus Taxol (5 mg/kg) twice a week, for 3 weeks. Tumor growth was follow by caliper measurement and/or by GFP visualization using the Ivis Lumina, Caliper Lifesciences. 2) Direct intratumoral delivery of lentiviruses expressing scrambled-miR (right flank) or miR484 (left flank) associated with carboplatin (15 mg/kg) plus taxol (5 mg/kg) intraperitoneal treatment.
# VEGFB [4] = test: Luciferase miRNA target reporter assay and western blot; assay type: cell-based, human; details: luciferase and western blot analyses
# Procedure: as §1
# (§5) The 3′ UTR of the human HGS, and VEGFB genes were PCR amplified using the following primers:
# (§6) and inserted into pGL3 control vector (Promega) by using Xba1 site immediately downstream from the stop codon of firefly luciferase, giving rise to the p3′UTR-HGS, and p3′UTR-VEGFB plasmids. These constructs were used to generate the p3′-UTRmut-HGS primers: […]
# VEGFB [5] = test: Western blot for VEGFB in cell lines stably transduced with miR-484; assay type: cell-based; details: MDAH-2774 or SKOV-3 stably transduced with miR-484 vs scr-vector; western blot (data not shown)
# SKOV-3 cells [6] = test: In vivo growth and susceptibility to Carboplatin+Taxol of xenografts expressing miR-484 (EGFP imaging); parameters: species or system nude mice; details: SK-OV3 cells expressing miR-484, EGFP fluorescence imaging
# Procedure: as §4
# (§7) Same was carried out with SKOV-3, except that 2.2×10^6 cells have been injected. When tumor masses became visible treatment with CBDCA (15 mg/kg) and Tax (5 mg/kg) was started. Drugs were delivered diluted in 200 ul of PBS and intraperitoneally injected twice a week, for 4 weeks. Tumor masses were measured with a caliper twice a week, for 4 weeks. Moreover, exploiting the expression of GFP fluorescent marker by the ovarian cancer cells utilized, mice have been anesthetized and tumor masses imaged by the Ivis Lumina, Caliper Lifesciences, once a week, for 4 weeks. Mice were then sacrificed and tumor masses excised and included in OCT for further analyses.
# MDAH-2774 cells [7] = test: In vivo growth and susceptibility to Carboplatin+Taxol of xenografts expressing miR-484 (caliper); parameters: species or system nude mice
# Procedure: as §4
# Athymic female nude mice (8/group) were subcutaneously injected on both dorsal flanks with 100 ul of PBS containing 1.5×10^6 MDAH-2774 cells scrambled-miR (right flank) or miR-484 (left flank).
# as §7
# SK-OV3 xenograft tumors = test: Vascular density (CD34, Chalkley eyepiece method) in xenograft tumors; assay type: in vivo, mice; details: SK-OV3 xenografts transduced with miR-484; 7 tumors
# Procedure: (§8) Tumor sections (2 μm thick) were cut and for formalin fixed paraffin embedded sample deparaffinization was achieved trough graded alcohols. Primary antibody against CD34 was applied following manufacturer's instruction. Vascular density (CD34+) was assessed using the Chalkley eyepiece method. Whole tumor sections were scanned at low magnification under a conference microscope by two observers. Three areas with the highest vascular density (vascular hot-spots) were identified. At high magnification (×400) a 25-point Chalkley-Eyepiece graticule was applied to each hot-spot and oriented to permit the maximum number of points to hit on or within blood vessels. The mean value of the three counts represents the vascular density of the tumor.
# [8] = test system: MDAH-2774 xenograft tumors; test: as above; assay type: in vivo, mice; details: MDAH-2774 xenografts transduced with miR-484; 7 tumors
# Procedure: as §8
# [9] = test system: ovarian cancer derived cell lines; test: miR expression in stably transfected ovarian cancer cell lines and their conditioned medium (real time PCR); assay type: cell-based; details: for miR in the CM of stably transfected cells: conditioned medium; for increase of miR expression over controls after stable transfection: miR-EGFP stable transfection in ovarian cancer cells
# Procedure: as §2, §3
# Lentiviruses expressing miR-484 were produced in 293FT cell lines (Invitrogen), by calcium phosphate transfection. To this purpose, the System Biosciences (SBI, USA) miR Precursor Constructs were used, containing dual expression of the specific miR and the copGFP fluorescent marker, for simple identification and monitoring of cells positive for transfection and transduction. Conditioned media containing viruses was harvested 72 hours after transfection, and used to transduce epithelial ovarian cancer cell lines (EOC). In particular, SKOV-3 and MDAH-2774 were transduced with viruses expressing either GFP alone (called hereafter empty vector) or GFP and precursor of miR-484, and then monitored for their fluorescence expression.
# VEGFR2 [10] = test: VEGFR2 expression in HUVEC co-cultured with miR over-expressing ovarian cancer cells; assay type: cell-based; details: HUVEC co-cultured 24 hours with miR over-expressing cells vs control
# HUVEC cells [11] = test: Tube formation assay on HUVEC cells with conditioned media from miR-484 expressing ovarian carcinoma cells; assay type: cell-based; details: CM from MDAH-2774 or SK-OV3 overexpressing miR-484
# Procedure: Wells from a 48-well plate were filled with […] of matrigel (BD, non growth factor reduced 8-10 ug/ul) and let solidify at 37° C. for 1 hour. HUVEC cells (ATCC, 1×10^5) resuspended in […] of medium were then layered onto the matrigel layer and monitored over the time for the formation of tube-like structures. Time-lapse video microscopy (Leica) was used to create a movie of this process, collecting images every 5 minutes for up to 20 hours. Media used to resuspend endothelial cells were 1—complete medium for endothelial cells, used as positive control, 2—Serum reduced medium (2%), used as negative control, 3—conditioned medium (plus 2% serum) from […] or MDAH-2774 transduced with scrambled-miR or miR-484.
# MDAH-2774 cells [12] = test: In vitro sensitivity to CBDCA and Tax of miR-overexpressing cells (MTS assay); assay type: cell-based; details: overexpression of the miR in MDAH-2274 cells; MTS assay 4 days later
# Procedure: (§9) After drugs removal, cells were washed in PBS and incubated in the presence of serum for additionally 4 days. Cells viability was assessed using MTS assay (SIGMA) following manufacturer instructions. The reported IC50 values represent the mean of at least 3 independent experiments. For the evaluation of miR-484 effects on in vitro drug sensitivity parental, scramble and miR-484 expressing cells were plated in 96 wells plates (1000 cells/well) and treated with the indicated doses of CBDCA and TAX. Viability was evaluated after 4 days as described above.
# SKOV-3 cells [13] = test: as above; assay type: cell-based; details: overexpression of the miR in SK-OV3 cells; MTS assay 4 days later
# Procedure: as §9
# HGS = test: Luciferase miRNA target reporter assay and western blot; assay type: cell-based, human; details: luciferase and western blot analyses
# Procedure: as §1, §5, §6
# [14] = CBDCA and Tax treatment, 7 mice, miR-484 expressing tumors
substance,measurement,setting,value
"miR-484: microRNA hsa-miR-484 (SEQ ID NO: 11), over-expressed via lentiviral miR precursor construct or pre-miR-484 transfection (UCAGGCUCAGUCCCCUCCCGAU; listed as RNA, chemistry not fully specified; listed as Homo sapiens)",endogenous levels of VEGFR2,VEGFR2 [1],modulated
same,time within which secreted miR enters HUVEC cells,HUVEC cells [2],≤ 24 h
same,cases in which drug sensitivity increased,MDAH-2774 cells [3],6/6
same,endogenous levels of VEGFB,VEGFB [4],modulated
same,VEGFB expression,VEGFB [5],down-regulated
same,sensitivity to treatment,SKOV-3 cells [6]; CBDCA+Tax,significantly increased
same,growth of the primary tumor,SKOV-3 cells [6],did not affect
same,mice in which tumor volume formed by miR-expressing cells was larger than control EGFP-expressing cells,"MDAH-2774 cells [7]; 15 days after subcutaneous inoculation, before treatment",6/8
same,increase of tumor size with respect to day 0 at the end of the treatment,MDAH-2774 cells [7]; [14],1.3 fold
same,range of tumor size increase with respect to day 0,MDAH-2774 cells [7]; [14],0.8-1.8 fold
same,mean microvessel density,SK-OV3 xenograft tumors,9±5.5 and 9
same,range of microvessel density,SK-OV3 xenograft tumors,1-18
same,mean microvessel density,[8],10±6.2 and 10
same,range of microvessel density,[8],4-22
same,miR in the CM of stably transfected cells,[9],increased
same,increase of miR expression over controls after stable transfection,[9],≥ 2 fold
same,expression of VEGFR2 on endothelial cells,VEGFR2 [10],significantly decrease
same,formation of tube like structures by HUVEC,HUVEC cells [11]; 6 hours on 3D matrigel,impaired
same,formation of tube like structures by HUVEC,HUVEC cells [11]; 20 hrs,abolished; also recorded: reduces the ability of HUVEC to properly form and maintain tube-like structures
same,in vitro sensitivity to CBDCA and Tax,MDAH-2774 cells [12],did not significantly affect
same,in vitro sensitivity to CBDCA and Tax,SKOV-3 cells [13],did not significantly affect
"miR-296: microRNA miR-296 (SEQ ID NO: 9), over-expressed via pre-miR-296 transfection or stable miR-296-EGFP transfection (AGGGCCCCCCCUCAAUCCUGU; listed as RNA, chemistry not given here; listed as Homo sapiens)",time within which secreted miR enters HUVEC cells,HUVEC cells [2],≤ 24 h
same,endogenous levels of HGS,HGS,modulated
same,miR in the CM of stably transfected cells,[9],found
same,increase of miR expression over controls after stable transfection,[9],≥ 2 fold
same,expression of VEGFR2 on endothelial cells,VEGFR2 [10],significantly increase
same,in vitro sensitivity to CBDCA and Tax,MDAH-2774 cells [12],did not significantly affect
same,in vitro sensitivity to CBDCA and Tax,SKOV-3 cells [13],did not significantly affect
